Results on two molecules are retold here after ChEMBL document CHEMBL1158883, “Flavanone glycosides from Miconia trailii” (J Nat Prod, 2003).

Structures are written as SMILES. pIC50: −log10 of the molar value. Where only a bound is given, the exact number is not on record here.

The test deals with Fatty acid synthase (Homo sapiens, UniProt P49327). Put plainly: Inhibition of fatty acid synthase.
Fatty acid synthase, sequence (P49327 whole entry): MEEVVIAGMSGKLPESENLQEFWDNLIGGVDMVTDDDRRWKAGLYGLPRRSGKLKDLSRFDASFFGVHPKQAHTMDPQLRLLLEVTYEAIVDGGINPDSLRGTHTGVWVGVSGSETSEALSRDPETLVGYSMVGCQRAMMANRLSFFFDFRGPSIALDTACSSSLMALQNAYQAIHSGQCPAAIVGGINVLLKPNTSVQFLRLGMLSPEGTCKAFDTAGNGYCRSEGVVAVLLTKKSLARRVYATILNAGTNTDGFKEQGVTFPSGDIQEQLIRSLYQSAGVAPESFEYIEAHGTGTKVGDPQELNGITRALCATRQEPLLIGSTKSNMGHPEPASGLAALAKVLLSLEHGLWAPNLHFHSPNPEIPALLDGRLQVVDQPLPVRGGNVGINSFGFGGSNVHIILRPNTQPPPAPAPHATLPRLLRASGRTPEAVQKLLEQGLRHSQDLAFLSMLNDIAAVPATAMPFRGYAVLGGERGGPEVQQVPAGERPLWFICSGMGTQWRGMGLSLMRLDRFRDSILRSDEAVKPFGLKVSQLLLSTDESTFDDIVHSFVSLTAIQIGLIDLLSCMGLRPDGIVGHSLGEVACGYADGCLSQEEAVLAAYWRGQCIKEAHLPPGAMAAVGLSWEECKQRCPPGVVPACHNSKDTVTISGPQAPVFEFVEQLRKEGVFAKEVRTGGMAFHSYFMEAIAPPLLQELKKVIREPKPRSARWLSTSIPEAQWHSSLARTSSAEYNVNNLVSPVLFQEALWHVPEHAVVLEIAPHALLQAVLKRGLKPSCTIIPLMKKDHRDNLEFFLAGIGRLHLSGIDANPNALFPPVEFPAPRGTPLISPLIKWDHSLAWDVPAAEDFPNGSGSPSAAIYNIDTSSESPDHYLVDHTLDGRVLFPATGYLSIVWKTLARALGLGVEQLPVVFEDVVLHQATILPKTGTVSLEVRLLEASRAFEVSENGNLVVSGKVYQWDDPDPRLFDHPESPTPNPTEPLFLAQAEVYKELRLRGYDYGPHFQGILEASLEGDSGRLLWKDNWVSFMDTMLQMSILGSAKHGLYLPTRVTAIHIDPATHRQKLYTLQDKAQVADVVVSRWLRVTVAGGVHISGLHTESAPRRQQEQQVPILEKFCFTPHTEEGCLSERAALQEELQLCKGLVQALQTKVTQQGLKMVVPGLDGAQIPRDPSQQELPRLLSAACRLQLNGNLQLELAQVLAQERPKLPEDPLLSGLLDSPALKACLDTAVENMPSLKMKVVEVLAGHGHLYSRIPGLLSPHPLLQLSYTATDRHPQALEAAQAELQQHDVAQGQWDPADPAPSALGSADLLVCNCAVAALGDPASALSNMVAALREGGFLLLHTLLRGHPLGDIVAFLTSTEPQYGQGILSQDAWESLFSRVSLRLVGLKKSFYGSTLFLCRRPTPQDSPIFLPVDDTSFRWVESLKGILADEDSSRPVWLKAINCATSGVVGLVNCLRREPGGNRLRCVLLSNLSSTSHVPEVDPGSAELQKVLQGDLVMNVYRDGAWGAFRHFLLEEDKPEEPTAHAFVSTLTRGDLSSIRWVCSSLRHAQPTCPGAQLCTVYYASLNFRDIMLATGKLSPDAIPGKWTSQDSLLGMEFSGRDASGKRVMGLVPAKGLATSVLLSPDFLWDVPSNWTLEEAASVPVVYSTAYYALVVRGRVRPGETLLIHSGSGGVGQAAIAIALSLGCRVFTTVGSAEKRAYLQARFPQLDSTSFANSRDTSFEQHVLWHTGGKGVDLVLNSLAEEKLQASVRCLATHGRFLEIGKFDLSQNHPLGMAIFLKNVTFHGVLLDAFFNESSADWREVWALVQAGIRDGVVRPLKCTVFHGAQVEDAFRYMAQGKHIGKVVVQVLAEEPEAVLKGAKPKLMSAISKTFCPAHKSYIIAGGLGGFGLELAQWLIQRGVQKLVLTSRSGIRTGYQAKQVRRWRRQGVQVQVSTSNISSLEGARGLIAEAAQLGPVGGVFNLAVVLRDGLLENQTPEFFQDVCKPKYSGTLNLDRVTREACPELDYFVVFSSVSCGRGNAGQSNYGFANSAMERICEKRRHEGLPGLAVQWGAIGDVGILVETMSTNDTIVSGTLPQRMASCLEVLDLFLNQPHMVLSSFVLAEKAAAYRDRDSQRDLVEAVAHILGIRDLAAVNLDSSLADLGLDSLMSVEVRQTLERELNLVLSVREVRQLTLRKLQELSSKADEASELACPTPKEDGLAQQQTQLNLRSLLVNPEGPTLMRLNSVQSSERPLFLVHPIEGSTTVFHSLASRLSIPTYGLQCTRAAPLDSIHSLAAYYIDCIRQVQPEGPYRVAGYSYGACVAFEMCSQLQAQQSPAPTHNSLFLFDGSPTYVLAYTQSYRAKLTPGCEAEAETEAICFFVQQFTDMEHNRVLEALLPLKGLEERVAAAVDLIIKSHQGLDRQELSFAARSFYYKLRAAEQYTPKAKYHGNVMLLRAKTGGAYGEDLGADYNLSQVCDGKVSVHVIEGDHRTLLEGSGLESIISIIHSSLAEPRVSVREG

On to `COc1ccc([C@@H]2CC(=O)c3c(O)c(C)c(O[C@@H]4O[C@H](CO[C@@H]5OC[C@H](O)[C@H](O)[C@H]5O)[C@@H](O)[C@H](O)[C@H]4O)c(C)c3O2)cc1` [MICONIOSIDE A], for which the pIC50 (commonly the IC50 on a negative log10 scale, so that one unit is a factor of ten) was below 4.09.
As to `C/C=C/C/C=C/CCC(=O)[C@H]1O[C@H]1C(N)=O` [CERULENIN], the pIC50 was 6.07.
